Assays:
cowpea plants [1] = assay: Infectivity of CPMV following incubation with blood plasma or serum; design: species or system Vigna unguiculata; details: day 7
Procedure: Infectivity of CPMV following incubation with blood. Whole blood samples were obtained from mice following cardiac puncture either with or without heparin. Samples were incubated at 4° C. overnight and then spun at 15,000 rpm for 10 minutes. Blood plasma or serum were recovered and incubated with CPMV (15 ug) in a one to one (v/v) ratio at 37° C. for 30 minutes while a control CPMV sample was incubated with PBS. Primary leaves from 7-day-old cowpea plants were then bruised with carborundum and inoculated with samples (at a concentration of 3 μg CPMV per leaf, or 300-fold more virus than is required to produce lesions) and observed daily for infection-induced mosaic symptoms.

LCMV = details: mouse, in vivo
cowpea plants [2] = assay: Recovery of virus particles from mouse tissues, infectivity to cowpea; design: species or system Vigna unguiculata
Procedure: Recovery of virus particles from mouse tissues. Four mice were orally inoculated with 150 μg/mouse of CPMV and 24 hours later, the mice were euthanized and the liver, spleen, and kidney tissues were extracted and pooled. Following homogenization of pooled tissue samples in PBS, the homogenates were centrifuged at 10,000 g for 10 minutes at 4° C., and the cleared tissue supernatants were removed to flat-bottom 50-ml centrifuge tubes, each containing a magnetic flea. Polyethylene glycol 8000 was added to each supernatant to a final concentration of 8% and the mixture was stirred for 30 minutes at 4° C. to precipitate any virus present. The resulting cloudy mixture was centrifuged at 6,000 rpm in a Sorvall RC5C centrifuge for 15 minutes and the pellet was resuspended in 50-500 μl of 0.1 M phosphate buffer (pH 7.0), depending on pellet size. For each tissue homogenate a 7-day-old cowpea plant was dusted with carborundum and the resuspended pellet from each tissue was rubbed onto a single primary leaf. Five to seven days later, the primary and secondary leaves were harvested and a circle of tissue weighing 70 mg was excised from each leaf. RNA was extracted using a Qiagen RNeasy Plant Mini Kit (Qiagen Research, Maryland, USA) and RT-PCR was conducted as described above. PCR products were electrophoresed on a 2% Seakem LE agarose gel. The PCR products were purified from the gel using a PCR purification kit (Qiagen) and sequenced (Retrogen) to confirm that they were CPMV specific. Southern hybridization of the products with a CPMV-specific probe was also performed using ^32P end-labeled oligonucleotides (Amersham Biosciences). PCR products were transfered to Hybond-N+ membrane (Amersham Biosciences) using standard techniques. Hybridization conditions were 3 hours at 55° C. and wash conditions were in 6×SSC/0.5% SDS and were performed twice for five minutes at room temperature and twice for 5 minutes at 50° C.

[3] = target: folate receptor (FR) on KB and HeLa cells (Homo sapiens, UniProt P15328); details: 4° C., both cell lines
[4] = RT-PCR detection of CPMV RNA in tissues of mice inoculated orally (gavage); details: for CPMV RNA detected in bone marrow, mice positive/examined / CPMV RNA detected in brain, mice positive/examined / CPMV RNA detected in duodenum, mice positive/examined / CPMV RNA detected in ileum, mice positive/examined / CPMV RNA detected in jejunum, mice positive/examined / CPMV RNA detected in kidney, mice positive/examined / CPMV RNA detected in liver, mice positive/examined / CPMV RNA detected in lung, mice positive/examined / CPMV RNA detected in spleen, mice positive/examined / CPMV RNA detected in stomach, mice positive/examined: oral
[5] = 1 g infected leaves, day 1 post ingestion

Sequence of folate receptor (FR) on KB and HeLa cells (P15328 25-234): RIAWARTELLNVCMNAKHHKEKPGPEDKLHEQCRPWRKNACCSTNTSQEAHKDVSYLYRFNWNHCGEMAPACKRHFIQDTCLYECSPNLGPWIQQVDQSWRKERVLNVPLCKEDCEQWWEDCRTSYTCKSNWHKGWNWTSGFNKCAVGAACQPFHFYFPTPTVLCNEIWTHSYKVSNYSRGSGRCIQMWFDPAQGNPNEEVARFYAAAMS

## cowpea mosaic virus [CPMV]
Cowpea plants [1]; 30 minutes at 37° C.
  lesions on primary leaves, plasma-incubated virus: 6 lesions per cm
  lesions on primary leaves, serum-incubated virus: less than 1 lesion per cm^2
Cowpea plants [1]
  lesions on primary leaves, control infection (PBS): too many lesions to count
LCMV
  survival of lethal i.c. LCMV challenge: one of six
Cowpea plants [2]; PEG-precipitated tissue homogenates
  symptoms on cowpea leaves from virus recovered from mouse liver and spleen: No symptoms were observed
Cowpea plants [2]; control titration on cowpea
  inoculated amount required for a PCR signal: 1 ng
  inoculated amount required to observe symptoms: 10 ng
[3]
  non-specific binding to the cell surface: significant non-specifig binding
[4]; oral gavage, 4 hours, 1 day, 2 days, 3 days
  CPMV RNA in the blood: detected in the blood of all orally gavaged mice
[4]; D1, Non-perfused
  CPMV RNA detected in bone marrow, mice positive/examined: 3/3
  CPMV RNA detected in brain, mice positive/examined: 3/3
  CPMV RNA detected in duodenum, mice positive/examined: 3/3
  CPMV RNA detected in ileum, mice positive/examined: 3/3
  CPMV RNA detected in jejunum, mice positive/examined: 3/3
  CPMV RNA detected in kidney, mice positive/examined: 3/3
  CPMV RNA detected in liver, mice positive/examined: 3/3
  CPMV RNA detected in lung, mice positive/examined: 3/3
  CPMV RNA detected in spleen, mice positive/examined: 3/3
  CPMV RNA detected in stomach, mice positive/examined: 3/3
[4]; D1, Perfused
  CPMV RNA detected in bone marrow, mice positive/examined: 2/3
  CPMV RNA detected in brain, mice positive/examined: 3/3
  CPMV RNA detected in duodenum, mice positive/examined: 3/3
  CPMV RNA detected in ileum, mice positive/examined: 3/3
  CPMV RNA detected in jejunum, mice positive/examined: 3/3
  CPMV RNA detected in kidney, mice positive/examined: 3/3
  CPMV RNA detected in liver, mice positive/examined: 3/3
  CPMV RNA detected in lung, mice positive/examined: 3/3
  CPMV RNA detected in spleen, mice positive/examined: 3/3
  CPMV RNA detected in stomach, mice positive/examined: 2/3
[4]; D2, Non-perfused
  CPMV RNA detected in bone marrow, mice positive/examined: 0/3
  CPMV RNA detected in brain, mice positive/examined: 1/3
  CPMV RNA detected in duodenum, mice positive/examined: 1/3
  CPMV RNA detected in ileum, mice positive/examined: 3/3
  CPMV RNA detected in jejunum, mice positive/examined: 0/3
  CPMV RNA detected in kidney, mice positive/examined: 0/3
  CPMV RNA detected in liver, mice positive/examined: 3/3
  CPMV RNA detected in lung, mice positive/examined: 1/3
  CPMV RNA detected in spleen, mice positive/examined: 1/3
  CPMV RNA detected in stomach, mice positive/examined: 1/3
[4]; D2, Perfused
  CPMV RNA detected in bone marrow, mice positive/examined: 0/3
  CPMV RNA detected in brain, mice positive/examined: 1/3
  CPMV RNA detected in duodenum, mice positive/examined: 1/3
  CPMV RNA detected in ileum, mice positive/examined: 1/3
  CPMV RNA detected in jejunum, mice positive/examined: 1/3
  CPMV RNA detected in kidney, mice positive/examined: 3/3
  CPMV RNA detected in liver, mice positive/examined: 3/3
  CPMV RNA detected in lung, mice positive/examined: 2/3
  CPMV RNA detected in spleen, mice positive/examined: 0/3
  CPMV RNA detected in stomach, mice positive/examined: 1/3
[4]; D3, Non-perfused
  CPMV RNA detected in bone marrow, mice positive/examined: 1/3
  CPMV RNA detected in brain, mice positive/examined: 3/3
  CPMV RNA detected in duodenum, mice positive/examined: 2/3
  CPMV RNA detected in ileum, mice positive/examined: 2/3
  CPMV RNA detected in jejunum, mice positive/examined: 2/3
  CPMV RNA detected in kidney, mice positive/examined: 1/3
  CPMV RNA detected in liver, mice positive/examined: 2/2
  CPMV RNA detected in lung, mice positive/examined: 1/3
  CPMV RNA detected in spleen, mice positive/examined: 0/3
  CPMV RNA detected in stomach, mice positive/examined: 3/3
[4]; D3, Perfused
  CPMV RNA detected in bone marrow, mice positive/examined: 0/3
  CPMV RNA detected in brain, mice positive/examined: 2/3
  CPMV RNA detected in duodenum, mice positive/examined: 0/2
  CPMV RNA detected in ileum, mice positive/examined: 1/3
  CPMV RNA detected in jejunum, mice positive/examined: 0/2
  CPMV RNA detected in kidney, mice positive/examined: 2/3
  CPMV RNA detected in liver, mice positive/examined: 3/3
  CPMV RNA detected in lung, mice positive/examined: 1/3
  CPMV RNA detected in spleen, mice positive/examined: 0/3
  CPMV RNA detected in stomach, mice positive/examined: 0/3
[5]
  mice positive for CPMV RNA in kidney, duodenum, jejunum and brain: 1 out of 3
  mice positive for CPMV RNA in spleen, liver, lungs, stomach, ileum and bone marrow: 2 out of 3
Ingestion of infected leaves
  persistence of CPMV RNA in tissues: did not persist in tissues past the first day
